Results on 6 compounds are retold here after patent US11299447B2, “Method for isolating a carboxylic acid from an aqueous solution” (PURAC BIOCHEM BV, priority 2011, dated 2022).

Common to all, as to type: physicochemical
A short description of data set [1]: Solvent solubility in aqueous MgCl2 solution (gas chromatography of aqueous phase). The method, then:
Hereafter, the stirring was stopped, the phases were allowed to separate and a sample was taken from the aqueous bottom phase. The concentration of solvent in this sample was determined by gas chromatography.

Data set [2] in a line: Extraction of different types of polycarboxylic acids. The following applies: for DBE: distribution ratio in back extraction; for DFE: distribution ratio in forward extraction, feed 15 wt. % MgCl2. The text has this: These tables also give the concentration ratio, which is the ratio between the acid concentration in the product and the acid concentration in the feed.
Data set [3] is described as follows: Stability of extraction solvent in contact with 2-hydroxy butyric acid feed solution (gas chromatography). The conditions noted are these: 60° C. The method, then: This experiment was conducted to compare the stability of two solvents, MIBK and Isoamyl alcohol in contact with the 2-hydroxy butyric acid feed solution prepared by adding 340 g of crystalline hydroxy butyric acid to 720 g water and mixing to complete dissolution. The thus prepared feed solution comprised 32 wt % of hydroxy butyric acid.
For each solvent a closed glass reactor was filled with 20 g of solvent and 20 g of the hydroxy butyric acid feed solution, put in an oven to maintain a temperature of 60° C. and shaken continuously. After 3 hours, 24 hours (1 day) and 168 hours (1 week) the shaking was stopped for 1 hour to allow the phases to settle, a sample was taken from the solvent top layer, and the composition of the solvent top layer analyzed by gas chromatography.

Data set [4] in a line: Lactic acid distribution ratio MIBK/aqueous MgCl2 solution. The conditions noted are these: initial lactic acid 20 wt %. The text has this:
Forward extraction and back extraction as used in the method of the invention are based on the difference in solubility of the carboxylic acid in water and the organic solvent at different temperatures. The solubility of a compound in one solvent relative to another solvent can be expressed in terms of the distribution ratio (DR). This ratio gives an indication how a compound will be distributed over the aqueous phase (e.g. the aqueous mixture) and the organic phase (e.g. the organic liquid) in a two-phase system at equilibrium. The distribution ratio may be defined as the ratio of the carboxylic acid concentration dissolved in the organic phase ([carboxylic acid]organic) over the concentration of the carboxylic acid dissolved in water ([carboxylic acid]water), provided that the two phases are in equilibrium with each other: DR=[carboxylic acid]organic/[carboxylic acid]water (1)
The resulting two phase system was stirred at 20° C. or 60° C. for 30 minutes with sufficient speed to ensure that both phases are well dispersed. Hereafter, the stirring is stopped, the phases were allowed to separate and samples were taken from both phases. The concentration of lactic acid (wt %) in these samples was determined by potentiometric titration. Hereafter the distribution ratio was calculated as the ratio of the lactic acid concentration (wt %) in the MIBK organic solvent phase divided by the lactic acid concentration (wt %) in the aqueous phase.

[5] abbreviates: Table 2.2, MgCl2 0 wt %, 20° C.
Where [6] appears, read: Table 2.2, MgCl2 15 wt %, 20° C.
Setting [7] is: Table 2.2, MgCl2 30 wt %, 20° C.

Regarding `CC(C)OC(C)C` [Diisopropyl ether, reference compound], the Solvent solubility is given as 1.0 wt % in data set [1] (setting [5]), 0.4 wt % in data set [1] (setting [6]) and 0.7 wt % in data set [1] (setting [7]).
For `O=C(O)/C=C/C(=O)O` [Fumaric acid, fumaric acid], in data set [2], the DFE/DBE turned out to be 7.29, the DBE is 0.24 and the DFE worked out at 1.75.
`CC(C)CCO` [Isoamyl alcohol, reference compound]: the Solvent solubility in data set [1] (setting [5]) worked out at 2.8 wt %; in data set [1] (setting [6]), 1.5 wt %; in data set [1] (setting [7]) it was 0.6 wt %. Moreover, the “isoamylhydroxybutyrate formed in solvent layer” value in data set [3] (20 g solvent + 20 g 32 wt % hydroxy butyric acid feed, after 3 hours) was 14.3 area %. For the same compound, the “isoamylhydroxybutyrate concentration in solvent layer” value in data set [3] (after 24 hours) and in data set [3] (after 168 hours) was 21.5 area % throughout.
Turning to `C=C(CC(=O)O)C(=O)O` [Itaconic acid, itaconic acid], in data set [2], the DFE/DBE came to 2.64, the DBE stood at 1.07 and the DFE is 2.83.
With `CC(=O)CC(C)C` [MIBK, methyl-isobutylketone], the MIBK solubility in data set [1] (MgCl2 0 wt %, 20° C.) turned out to be 1.8 wt %; in data set [1] (MgCl2 0 wt %, 60° C.), 1.4 wt %; in data set [1] (MgCl2 15 wt %, 20° C.) it was 0.48 wt %; in data set [1] (MgCl2 15 wt %, 60° C.), 0.20 wt %; in data set [1] (MgCl2 30 wt %, 20° C.) it was 0.17 wt %; in data set [1] (MgCl2 30 wt %, 60° C.), 0.11 wt %. For the same compound, the Solvent solubility in data set [1] (setting [5]) is 1.8 wt %; in data set [1] (setting [6]) it was 0.5 wt %; in data set [1] (setting [7]), 0.1 wt %. The “changes in the purity of the solvent” value in data set [3] (20 g solvent + 20 g 32 wt % hydroxy butyric acid feed, after 168 hours) is listed as “no changes in the purity of the MIBK could be detected”.
For the compound `CC(O)C(=O)O` (stereo not shown) [lactic acid], the “Lactic acid distribution ratio” value in data set [4] (MgCl2 0 wt %, 20° C.) came out at 0.16 wt %/wt %; in data set [4] (MgCl2 0 wt %, 60° C.), 0.19 wt %/wt %; in data set [4] (MgCl2 10.5 wt %, 20° C.) it was 0.33 wt %/wt %; in data set [4] (MgCl2 10.5 wt %, 60° C.) it was 0.37 wt %/wt %; in data set [4] (MgCl2 16.0 wt %, 20° C.) it was 0.49 wt %/wt %; in data set [4] (MgCl2 16.0 wt %, 60° C.), 0.56 wt %/wt %.
